≈ marks a conversion by molar mass, not a printed value.
conditions: not given

logP | SMILES
2.65 | CCOC(=O)C(=Cc1ccc(Cl)cc1)NC=O
2.41 | CCOC(=O)C(=Cc1ccccc1Cl)NC=O
2.22 | CCOC(=O)C(=Cc1ccc(OC)cc1)NC=O
2.08 | CCOC(=O)C(=Cc1ccoc1)NC=O
1.97 | CCOC(=O)C(=Cc1ccc(OC)c(OC)c1)NC=O
2.48 | CCOC(=O)C(=Cc1ccccc1)NC=O
2.05 | CCOC(=O)C(=Cc1cccc([N+](=O)[O-])c1)NC=O
2.51 | CCOC(=O)C(=Cc1cccc(Cl)c1)NC=O
2.05 | CCOC(=O)C(=Cc1ccc([N+](=O)[O-])cc1)NC=O
1.66 | CCOC(=O)C(=Cc1ccc2c(c1)OCO2)NC=O

same assay, conditions: 25 °C

solubility [µM] | SMILES
1790 (≈ 374 µg/mL) | CCOC(=O)C(=Cc1ccoc1)NC=O

Source: the OPERA property sets (Mansouri et al. 2018)
